{
  "source": "patent US20260049088A1",
  "about": "“TRICYCLIC HETEROCYCLIC DERIVATIVES, COMPOSITIONS AND USES THEREOF” (Danatlas Pharmaceuticals Co., Ltd., priority 2023, published 2026)",
  "target": "T1, hPARG (Homo sapiens, UniProt Q86W56)",
  "T1 construct": "made in house; host or cells: E. coli",
  "T1 sequence (Q86W56 whole entry)": "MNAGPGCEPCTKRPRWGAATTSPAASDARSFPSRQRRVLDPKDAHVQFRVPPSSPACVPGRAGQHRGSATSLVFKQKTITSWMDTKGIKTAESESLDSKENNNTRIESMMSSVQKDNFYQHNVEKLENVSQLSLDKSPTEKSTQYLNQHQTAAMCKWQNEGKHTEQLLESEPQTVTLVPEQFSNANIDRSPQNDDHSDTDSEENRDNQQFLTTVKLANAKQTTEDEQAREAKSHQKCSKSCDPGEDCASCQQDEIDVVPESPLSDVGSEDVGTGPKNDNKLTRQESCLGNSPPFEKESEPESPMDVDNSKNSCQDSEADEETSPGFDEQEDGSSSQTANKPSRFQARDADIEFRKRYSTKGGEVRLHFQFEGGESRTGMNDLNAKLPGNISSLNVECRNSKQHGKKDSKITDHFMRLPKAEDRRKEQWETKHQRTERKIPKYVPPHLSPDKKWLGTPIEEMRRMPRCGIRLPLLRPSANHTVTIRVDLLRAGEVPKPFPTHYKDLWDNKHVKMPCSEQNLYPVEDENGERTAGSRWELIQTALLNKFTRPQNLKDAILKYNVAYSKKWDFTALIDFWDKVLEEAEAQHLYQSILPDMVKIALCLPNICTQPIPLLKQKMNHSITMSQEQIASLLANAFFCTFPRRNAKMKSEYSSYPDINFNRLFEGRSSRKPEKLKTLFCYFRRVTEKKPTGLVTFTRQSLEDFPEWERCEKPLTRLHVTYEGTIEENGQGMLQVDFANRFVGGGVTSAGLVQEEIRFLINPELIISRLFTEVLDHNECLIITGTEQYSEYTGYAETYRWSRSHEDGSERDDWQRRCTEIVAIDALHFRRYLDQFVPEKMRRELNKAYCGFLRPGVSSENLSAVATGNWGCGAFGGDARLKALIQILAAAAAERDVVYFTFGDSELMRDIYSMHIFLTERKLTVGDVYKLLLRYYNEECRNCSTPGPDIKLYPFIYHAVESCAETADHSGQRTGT",
  "experiment": "PARG enzymatic activity assay (HTRF)",
  "assay_type": "biochemical",
  "settings": "C-terminal His6-tag hPARG 65 pM, biotinylated-NAD ribosylated PARP1 substrate 8 nM",
  "in_short": "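His6-tagged hPARG from E. coli (65 pM final) preincubated 60 min RT with compound (10-point 4-fold dilution), then 8 nM biotinylated NAD-ribosylated PARP1 added for 10 min RT in Tris pH 7.4 buffer with EDTA, EGTA, DTT, KCl. HTRF detection (Eu-streptavidin/anti-His XL665, 620/665 nm); IC50 from 4-parameter fit against DMSO and no-enzyme controls.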",
  "data": [
    {"smiles": "CN(C[C@H]1CC[C@@H](O)CC1)c1ncnc2c1c1ccc(S(=O)(=O)NC3(C#N)CC3)cc1n2-c1nnc(C(F)F)s1", "note": "[Example 73, N-(1-Cyanocyclopropyl)-9-(5-(difluoromethyl)-1,3,4-thiadiazol-2-yl)-4-((((1s,4s)-4-hydroxycyclohexyl)methyl)(methyl)amino)-9H-pyrimido[4,5-b]indole-7-sulfonamide]", "values": [
      {"measurement": "IC50", "result": "≤ 100", "unit": "nM"}
    ]},
    {"smiles": "CN(C)[C@H]1CCCC[C@@H]1N(C)c1ncnc2c1c1ccc(S(=O)(=O)NC3(C#N)CC3)cc1n2-c1nnc(C(F)F)s1", "note": "[Example 74, N-(1-Cyanocyclopropyl)-9-(5-(difluoromethyl)-1,3,4-thiadiazol-2-yl)-4-(((1S,2S)-2-(dimethylamino)cyclohexyl)(methyl)amino)-9H-pyrimido[4,5-b]indole-7-sulfonamide]", "values": [
      {"measurement": "IC50", "result": "≤ 100", "unit": "nM"}
    ]},
    {"smiles": "CN(CC1(C#N)CC1)c1ncnc2c1c1ccc(S(=O)(=O)NC3(C#N)CC3)cc1n2-c1nnc(C(F)F)s1", "note": "[Example 75, N-(1-Cyanocyclopropyl)-4-(((1-cyanocyclopropyl)methyl)(methyl)amino)-9-(5-(difluoromethyl)-1,3,4-thiadiazol-2-yl)-9H-pyrimido[4,5-b]indole-7-sulfonamide]", "values": [
      {"measurement": "IC50", "result": "≤ 100", "unit": "nM"}
    ]},
    {"smiles": "CN(CCc1ccccn1)c1ncnc2c1c1ccc(S(=O)(=O)NC3(C#N)CC3)cc1n2-c1nnc(C(F)F)s1", "note": "[Example 76, N-(1-Cyanocyclopropyl)-9-(5-(difluoromethyl)-1,3,4-thiadiazol-2-yl)-4-(methyl(2-(pyridin-2-yl)ethyl)amino)-9H-pyrimido[4,5-b]indole-7-sulfonamide]", "values": [
      {"measurement": "IC50", "result": "≤ 100", "unit": "nM"}
    ]},
    {"smiles": "CN(CCN1CCC(F)(F)CC1)c1ncnc2c1c1ccc(S(=O)(=O)NC3(C#N)CC3)cc1n2-c1nnc(C(F)F)s1", "note": "[Example 77, N-(1-Cyanocyclopropyl)-9-(5-(difluoromethyl)-1,3,4-thiadiazol-2-yl)-4-((2-(4,4-difluoropiperidin-1-yl)ethyl)(methyl)amino)-9H-pyrimido[4,5-b]indole-7-sulfonamide]", "values": [
      {"measurement": "IC50", "result": "100 to 1000", "unit": "nM"}
    ]},
    {"smiles": "CN(CCN1CCS(=O)(=O)CC1)c1ncnc2c1c1ccc(S(=O)(=O)NC3(C#N)CC3)cc1n2-c1nnc(C(F)F)s1", "note": "[Example 78, N-(1-Cyanocyclopropyl)-9-(5-(difluoromethyl)-1,3,4-thiadiazol-2-yl)-4-((2-(1,1-dioxidothiomorpholino)ethyl)(methyl)amino)-9H-pyrimido[4,5-b]indole-7-sulfonamide]", "values": [
      {"measurement": "IC50", "result": "≤ 100", "unit": "nM"}
    ]},
    {"smiles": "N#CC1(NS(=O)(=O)c2ccc3c4c(NCC5COCCO5)ncnc4n(-c4nnc(C(F)F)s4)c3c2)CC1", "note": "(stereo not shown) [Example 79, 4-(((1,4-Dioxan-2-yl)methyl)amino)-N-(1-cyanocyclopropyl)-9-(5-(difluoromethyl)-1,3,4-thiadiazol-2-yl)-9H-pyrimido[4,5-b]indole-7-sulfonamide]", "values": [
      {"measurement": "IC50", "result": "≤ 100", "unit": "nM"}
    ]},
    {"smiles": "CN(CC1CCCN1C)c1ncnc2c1c1ccc(S(=O)(=O)NC3(C#N)CC3)cc1n2-c1nnc(C(F)F)s1", "note": "(stereo not shown) [Example 80, N-(1-Cyanocyclopropyl)-9-(5-(difluoromethyl)-1,3,4-thiadiazol-2-yl)-4-(methyl((1-methylpyrrolidin-2-yl)methyl)amino)-9H-pyrimido[4,5-b]indole-7-sulfonamide]", "values": [
      {"measurement": "IC50", "result": "≤ 100", "unit": "nM"}
    ]},
    {"smiles": "C[C@@H]1CCCN(c2ncnc3c2c2ccc(S(=O)(=O)NC4(C#N)CC4)cc2n3-c2nnc(C(F)F)s2)C1", "note": "[Example 81, (R)-N-(1-Cyanocyclopropyl)-9-(5-(difluoromethyl)-1,3,4-thiadiazol-2-yl)-4-(3-methylpiperidin-1-yl)-9H-pyrimido[4,5-b]indole-7-sulfonamide]", "values": [
      {"measurement": "IC50", "result": "≤ 100", "unit": "nM"}
    ]},
    {"smiles": "N#CC1(NS(=O)(=O)c2ccc3c4c(NC(=O)CN5CCOCC5)ncnc4n(-c4nnc(C(F)F)s4)c3c2)CC1", "note": "[Example 82, N-(7-(N-(1-Cyanocyclopropyl)sulfamoyl)-9-(5-(difluoromethyl)-1,3,4-thiadiazol-2-yl)-9H-pyrimido[4,5-b]indol-4-yl)-2-morpholinoacetamide]", "values": [
      {"measurement": "IC50", "result": "≤ 100", "unit": "nM"}
    ]},
    {"smiles": "N#CC1(NS(=O)(=O)c2ccc3c4c(SCCN5CCOCC5)ncnc4n(-c4nnc(C(F)F)s4)c3c2)CC1", "note": "[Example 83, N-(1-Cyanocyclopropyl)-9-(5-(difluoromethyl)-1,3,4-thiadiazol-2-yl)-4-((2-morpholinoethyl)thio)-9H-pyrimido[4,5-b]indole-7-sulfonamide]", "values": [
      {"measurement": "IC50", "result": "100 to 1000", "unit": "nM"}
    ]},
    {"smiles": "COCCSc1ncnc2c1c1ccc(S(=O)(=O)NC3(C#N)CC3)cc1n2-c1nnc(C(F)F)s1", "note": "[Example 84, N-(1-Cyanocyclopropyl)-9-(5-(difluoromethyl)-1,3,4-thiadiazol-2-yl)-4-((2-methoxyethyl)thio)-9H-pyrimido[4,5-b]indole-7-sulfonamide]", "values": [
      {"measurement": "IC50", "result": "100 to 1000", "unit": "nM"}
    ]},
    {"smiles": "N#CC1(NS(=O)(=O)c2ccc3c4c(/C=C/CN5CCOCC5)ncnc4n(-c4nnc(C(F)F)s4)c3c2)CC1", "note": "[Example 85, (E)-N-(1-Cyanocyclopropyl)-9-(5-(difluoromethyl)-1,3,4-thiadiazol-2-yl)-4-(3-morpholinoprop-1-en-1-yl)-9H-pyrimido[4,5-b]indole-7-sulfonamide]", "values": [
      {"measurement": "IC50", "result": "≤ 100", "unit": "nM"}
    ]},
    {"smiles": "N#CC1(NS(=O)(=O)c2ccc3c4c(C#CCN5CCOCC5)ncnc4n(-c4nnc(C(F)F)s4)c3c2)CC1", "note": "[Example 86, N-(1-Cyanocyclopropyl)-9-(5-(difluoromethyl)-1,3,4-thiadiazol-2-yl)-4-(3-morpholinoprop-1-yn-1-yl)-9H-pyrimido[4,5-b]indole-7-sulfonamide]", "values": [
      {"measurement": "IC50", "result": "≤ 100", "unit": "nM"}
    ]},
    {"smiles": "N#CC1(NS(=O)(=O)c2ccc3c4c(CCCN5CCOCC5)ncnc4n(-c4nnc(C(F)F)s4)c3c2)CC1", "note": "[Example 87, N-(1-Cyanocyclopropyl)-9-(5-(difluoromethyl)-1,3,4-thiadiazol-2-yl)-4-(3-morpholinopropyl)-9H-pyrimido[4,5-b]indole-7-sulfonamide]", "values": [
      {"measurement": "IC50", "result": "≤ 100", "unit": "nM"}
    ]},
    {"smiles": "CC(C)(O)C#Cc1ncnc2c1c1ccc(S(=O)(=O)NC3(C#N)CC3)cc1n2-c1nnc(C(F)F)s1", "note": "[Example 88, N-(1-Cyanocyclopropyl)-9-(5-(difluoromethyl)-1,3,4-thiadiazol-2-yl)-4-(3-hydroxy-3-methylbut-1-yn-1-yl)-9H-pyrimido[4,5-b]indole-7-sulfonamide]", "values": [
      {"measurement": "IC50", "result": "≤ 100", "unit": "nM"}
    ]},
    {"smiles": "CC(C)(O)CCc1ncnc2c1c1ccc(S(=O)(=O)NC3(C#N)CC3)cc1n2-c1nnc(C(F)F)s1", "note": "[Example 89, N-(1-Cyanocyclopropyl)-9-(5-(difluoromethyl)-1,3,4-thiadiazol-2-yl)-4-(3-hydroxy-3-methylbutyl)-9H-pyrimido[4,5-b]indole-7-sulfonamide]", "values": [
      {"measurement": "IC50", "result": "100 to 1000", "unit": "nM"}
    ]},
    {"smiles": "CN1CCOCC1COc1ncnc2c1c1ccc(S(=O)(=O)NC3(C#N)CC3)cc1n2-c1nnc(C(F)F)s1", "note": "(stereo not shown) [Example 90, N-(1-Cyanocyclopropyl)-9-(5-(difluoromethyl)-1,3,4-thiadiazol-2-yl)-4-((4-methylmorpholin-3-yl)methoxy)-9H-pyrimido[4,5-b]indole-7-sulfonamide]", "values": [
      {"measurement": "IC50", "result": "100 to 1000", "unit": "nM"}
    ]},
    {"smiles": "N#CC1(NS(=O)(=O)c2ccc3c4c(OCCN5CCCS5(=O)=O)ncnc4n(-c4nnc(C(F)F)s4)c3c2)CC1", "note": "[Example 91, N-(1-Cyanocyclopropyl)-9-(5-(difluoromethyl)-1,3,4-thiadiazol-2-yl)-4-(2-(1,1-dioxidoisothiazolidin-2-yl)ethoxy)-9H-pyrimido[4,5-b]indole-7-sulfonamide]", "values": [
      {"measurement": "IC50", "result": "≤ 100", "unit": "nM"}
    ]},
    {"smiles": "N#CC1(NS(=O)(=O)c2ccc3c4c(OCC5COCCN5)ncnc4n(-c4nnc(C(F)F)s4)c3c2)CC1", "note": "(stereo not shown) [Example 92, N-(1-cyanocyclopropyl)-9-(5-(difluoromethyl)-1,3,4-thiadiazol-2-yl)-4-(morpholin-3-ylmethoxy)-9H-pyrimido[4,5-b]indole-7-sulfonamide]", "values": [
      {"measurement": "IC50", "result": "100 to 1000", "unit": "nM"}
    ]},
    {"smiles": "CCN[C@@H]1CCN(c2ncnc3c2c2ccc(S(=O)(=O)NC4(C#N)CC4)cc2n3-c2nnc(C(F)F)s2)C[C@@H]1F", "note": "[Example 93, N-(1-Cyanocyclopropyl)-9-(5-(difluoromethyl)-1,3,4-thiadiazol-2-yl)-4-((3S,4R)-4-(ethylamino)-3-fluoropiperidin-1-yl)-9H-pyrimido[4,5-b]indole-7-sulfonamide]", "values": [
      {"measurement": "IC50", "result": "≤ 100", "unit": "nM"}
    ]},
    {"smiles": "C[C@H]1CN(c2ncnc3c2c2ccc(S(=O)(=O)NC4(C#N)CC4)cc2n3-c2nnc(C(F)F)s2)C[C@H](C)N1", "note": "[Example 94, N-(1-Cyanocyclopropyl)-9-(5-(difluoromethyl)-1,3,4-thiadiazol-2-yl)-4-((3S,5S)-3,5-dimethylpiperazin-1-yl)-9H-pyrimido[4,5-b]indole-7-sulfonamide]", "values": [
      {"measurement": "IC50", "result": "≤ 100", "unit": "nM"}
    ]}
  ]
}
